The values that follow come from patent US20030100550A1, “Carboxamide diazepin derivatives, preparation method, use as medicines, pharmaceutical compositions and use thereof” (priority 2002, published 2003).

Assay type in all cases: biochemical
For one assay, the target named is T1, Papain (Carica papaya, UniProt P00784).
T1 construct: purchased Sigma
T1 sequence (P00784 134-345): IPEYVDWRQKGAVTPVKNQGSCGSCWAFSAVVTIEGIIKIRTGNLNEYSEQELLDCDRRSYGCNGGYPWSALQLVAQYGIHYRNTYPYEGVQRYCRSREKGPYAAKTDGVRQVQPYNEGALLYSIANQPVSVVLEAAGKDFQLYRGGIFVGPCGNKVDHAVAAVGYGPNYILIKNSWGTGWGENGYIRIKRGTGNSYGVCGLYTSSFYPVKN
Kind of assay: Study of Papain inhibition (fluorescence). Conditions: enzyme 20 ng/ml, 30 minutes at ambient temperature. On the procedure:
(§1) The products to be tested (10 mM) are diluted to […] in DMSO and distributed into Nunc polystyrene 96 well plates at a rate of 2 μl per well. Column 12 of the plate is reserved for the controls and therefore receives […] of DMSO (without products) per well. The plates are stored at −80° C. and thawed on the day of the experiment.
(§2) The products are diluted to 50 μM by adding 38 μl of reaction buffer: sodium acetate 100 mM, EDTA 5 mM, DTT […] pH 5.5. The addition as well as all the operations by pipette are carried out with a CybiWell 96 tip pipette. After mixing the solutions, each product is transferred into 2 wells (duplicates) of a Greiner black 384 well plate at a rate of 10 μl per well. Two 96-well plates can therefore be tested in a 384-well plate.
(§3) A solution of substrate at 50 μM, Z-Val-arg-AMC (Calbiochem), is prepared in the reaction buffer. The substrate, is then distributed into all the wells of the 384-well plate (20 μl per well).
(§4) A solution of Cathepsin K at 12.5 ng/ml is prepared in the reaction buffer and distributed into all the wells of the 384-well plate (20 μl per well) except for the 16 wells serving as 100% inhibition controls (column 23 and 24, lines I to P) which receive 20 μl of enzyme-free buffer.
(§5) The plates are then incubated 2H at ambient temperature, then read on Fluoroskan (Labsystems): excitation 390 nm; emission 460 nm
(§6) The final concentrations of each of the reagents are: products 10 μM, substrate 20 μM, enzyme 5 ng/ml.
(§7) The % inhibition for each of the products is calculated by using points at 0 and 100% inhibition of each plate as references. The products presenting a significant inhibition are then retested on a range of concentrations from 50 to 0.5 μM to determine an IC50.
Study of Papain Inhibition:
(§8) Protocol identical to that of Cathepsin K except for:
Papain (Sigma), solution at 50 ng/ml, final concentration 20 ng/ml
Incubation for 30 minutes at ambient temperature

A further assay addresses T2, Cathepsin K (Homo sapiens, UniProt P43235).
T2 sequence (P43235 115-329): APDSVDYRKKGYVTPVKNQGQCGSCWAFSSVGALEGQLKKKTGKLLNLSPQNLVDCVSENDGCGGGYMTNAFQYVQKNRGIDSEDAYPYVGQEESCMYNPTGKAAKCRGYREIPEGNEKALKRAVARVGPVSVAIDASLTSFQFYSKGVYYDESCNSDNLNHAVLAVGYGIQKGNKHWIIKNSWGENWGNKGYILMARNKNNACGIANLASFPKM
Kind of assay: Study of Cathepsin K inhibition (fluorescence, Z-Val-arg-AMC). The following applies: substrate Z-Val-arg-AMC 20 μM, enzyme 5 ng/ml, 2H at ambient temperature; read-out: Cathepsin K IC50. As for the experimental part:
Study of Cathepsin K Inhibition:
as §1, §2, §3, §4, §5, §6, §7

The target in the next assay is T3, Cathepsin B (Homo sapiens, UniProt P07858).
T3 construct: purchased Calbiochem
Description: Study of Cathepsin B inhibition (fluorescence, Z-arg-arg-AMC). Conditions: for IC50: substrate Z-arg-arg-AMC 20 μM, enzyme 16 ng/ml, 1 hour at ambient temperature; for Cathepsin B, percentage in parentheses beside IC50 value (% inhibition): printed beside 20 μM, meaning not explained. As for the experimental part:
as §1, §2, §3, §4, §5, §6, §7
Study of Cathepsin B Inhibition:
as §8
Z-arg-arg-AMC substrate (Calbiochem), solution at 50 μM, final concentration 20 μM
Cathepsin B (Calbiochem), solution at 40 ng/ml, final concentration 16 ng/ml
Incubation for 1 hour at ambient temperature

One may read the IC50 as the concentration that gives 50% inhibition. Regarding `C=CCOC(=O)CC[C@H](NC(=O)[C@@H]1CCCN2C(=O)CC[C@H](NC(=O)Nc3ccc(Oc4ccccc4)cc3)C(=O)N12)C(=O)CSc1nnnn1-c1ccccc1` [Example 128, (2-propenyl)(4S)6-[(1-phenyl-1H-tetrazol-5-yl)thio]-4-[[[(1S,9S)-9-[[[(4-phenoxyphenyl)amino]carbonyl]amino]-octahydro-6,10-dioxo-6H-pyridazino[1,2-a][1,2]diazepine-1-yl]carbonyl]amino]-5-oxo-hexanoate], the IC50 came to 6 µM at Papain and 20 µM on Cathepsin K. Consider `C=CCOC(=O)CC[C@H](NC(=O)[C@@H]1CCCN2C(=O)CC[C@H](NC(=O)Nc3ccc(Oc4ccccc4)cc3)C(=O)N12)C(=O)CSc1nc2ccccc2s1` [Example 129, (2-propenyl)(4S)6-[(benzothiazol-2-yl)thio]-4-[[[(1S,9S)-9-[[[(4-phenoxyphenyl)amino]carbonyl]amino]-octahydro-6,10-dioxo-6H-pyridazino[1,2-a][1,2]diazepine-1-yl]carbonyl]amino]-5-oxo-hexanoate], for which the IC50 against Papain turned out to be 4 µM. Regarding `C=CCOC(=O)CC[C@H](NC(=O)[C@@H]1CCCN2C(=O)CC[C@H](NC(=O)Nc3ccc(Oc4ccccc4)cc3)C(=O)N12)C(=O)CSCc1ccc(OC)cc1` [Example 130, (2-propenyl)(4S)6-[[(4-methoxyphenyl)methyl]thio]-4-[[[(1S,9S)-9-[[[(4-phenoxyphenyl)amino]carbonyl]amino]-octahydro-6,10-dioxo-6H-pyridazino[1,2-a][1,2]diazepine-1-yl]carbonyl]amino]-5-oxo-hexanoate], the IC50 at Papain came to 6 µM; at Cathepsin K, 20 µM. Turning to `C=CCOC(=O)CC[C@H](NC(=O)[C@@H]1CCCN2C(=O)CC[C@H](NC(=O)Nc3ccc(Oc4ccccc4)cc3)C(=O)N12)C(=O)COC(=O)c1ccncc1` [Example 131, (2-propenyl)(4S)6-[[(4-pyridinyl)carbonyl]oxy]-4-[[[(1S,9S)-9-[[[(4-phenoxyphenyl)amino]carbonyl]amino]-octahydro-6,10-dioxo-6H-pyridazino[1,2-a][1,2]diazepine-1-yl]carbonyl]amino]-5-oxo-hexanoate], the IC50 at Papain was 9 µM; on Cathepsin K, 7 µM.

As to `C=CCOC(=O)CC[C@H](NC(=O)[C@@H]1CCCN2C(=O)CC[C@H](NC(=O)Nc3ccc(Oc4ccccc4)cc3)C(=O)N12)C(=O)COC(=O)Cc1ccsc1` [Example 134, (2-propenyl)(4S)6-[1-oxo-2-(thien-3-yl)ethoxy]-4-[[[(1S,9S)-9-[[[(4-phenoxyphenyl)amino]carbonyl]amino]-octahydro-6,10-dioxo-6H-pyridazino[1,2-a][1,2]diazepine-1-yl]carbonyl]amino]-5-oxo-hexanoate], the results for the IC50 against Papain and on Cathepsin K were 7 µM and 20 µM, respectively. In turn, `O=C(Nc1ccc(Oc2ccccc2)cc1)N[C@H]1CCC(=O)N2CCC[C@@H](C(=O)N[C@@H](Cc3ccccc3)C(=O)COC(=O)Cc3ccsc3)N2C1=O` [Example 216, 9-[(9S)-[[(4-phenoxyphenyl)amino]carbonyl]amino]-N-[(2S)-1-phenyl-4-[1-oxo-2-(3-thienyl)ethoxy]-3-oxo-2-butyl]-octahydro-6,10-dioxo-6H-(1S)-pyridazino[1,2-a][1,2]diazepine-1-carboxamide] yielded an IC50 against Papain of 6 µM. Take `O=C(CSc1nc2ccccc2s1)[C@H](Cc1ccccc1)NC(=O)[C@@H]1CCCN2C(=O)CC[C@H](NS(=O)(=O)c3ccc(C(F)(F)F)cc3)C(=O)N12` [Example 241, 9-[(9S)-[[[4-(trifluoromethyl)phenyl]sulphonyl]amino]-N-[(2S)-1-phenyl-4-(2-benzothiazolyl)thio]-3-oxo-2-butyl]-octahydro-6,10-dioxo-6H-(1S)-pyridazino[1,2-a][1,2]diazepine-1-carboxamide]: the IC50 against Papain amounted to 7 µM. Consider `CC(C)C[C@H](NC(=O)[C@@H]1CCCN2C(=O)CC[C@H](NS(=O)(=O)c3ccc4ccccc4c3)C(=O)N12)C(=O)COC(=O)c1c(Cl)cccc1Cl` [Example 322, 9-[(9S)-[(2-naphthalenyl)sulphonyl]amino]-N-[(3S)-5-methyl-1-[(2,6-dichlorobenzoyl)oxy]-2-oxo-3-hexyl]-octahydro-6,10-dioxo-6H-(1S)-pyridazino[1,2-a][1,2]diazepine-1-carboxamide], for which the results for the IC50 at Cathepsin B and on Cathepsin K were 6 µM and 20 µM, respectively. For `CC(C)C[C@H](NC(=O)[C@@H]1CCCN2C(=O)CC[C@H](NS(=O)(=O)c3ccc(C(F)(F)F)cc3)C(=O)N12)C(=O)C=[N+]=[N-]` [Example 347, 9-[(9S)-[[4-(trifluoromethyl)phenyl]sulphonyl]amino]-N-((3S)-1-diazo-5-methyl-2-oxo-3-hexyl)-octahydro-6,10-dioxo-6H-(1S)-pyridazino[1,2-a][1,2]diazepine-1-carboxamide], on Cathepsin B, the “Cathepsin B, percentage in parentheses beside IC50 value (% inhibition)” value came out at 25%. Besides, the IC50 on Cathepsin K was 12 µM.

On Papain, `COc1cccc(C(=O)N[C@H]2CCC(=O)N3CCC[C@@H](C(=O)N[C@H](C(=O)CSc4nc5ccccc5s4)C(C)C)N3C2=O)c1` [Example 366, 9-[(9S)-(3-methoxybenzoyl)amino]-N-[(3S)-1-[(benzothiazol-2-yl)thio]-4-methyl-2-oxo-3-pentyl]-octahydro-6,10-dioxo-6H-(1S)-pyridazino[1,2-a][1,2]diazepine-1-carboxamide] registered an IC50 of 17 µM. On to `CC(C)[C@H](NC(=O)[C@@H]1CCCN2C(=O)CC[C@H](NC(=O)NCCc3cccs3)C(=O)N12)C(=O)CSc1nc2ccccc2s1` [Example 398, 9-[(9S)-[[[2-(thien-2-yl)-ethyl]amino]carbonyl]amino]-N-[(3S)-1-[(benzothiazol-2-yl)thio]-4-methyl-2-oxo-3-pentyl]-octahydro-6,10-dioxo-6H-(1S)-pyridazino[1,2-a][1,2]diazepine-1-carboxamide], for which the IC50 on Papain is 9 µM. For `C[C@H](NC(=O)[C@@H]1CCCN2C(=O)CC[C@H](NC(=O)NC3CCCCC3)C(=O)N12)C(=O)COC(=O)c1c(Cl)cccc1Cl` [Example 433, 9-[(9S)-[(cyclohexylamino)carbonyl]amino]-N-[(2S)-4-[(2,6-dichlorobenzoyl)oxy]-3-oxo-2-butyl]-octahydro-6,10-dioxo-6H-(1S)-pyridazino[1,2-a][1,2]diazepine-1-carboxamide], the IC50 worked out at 4 µM against Cathepsin B and 20 µM at Cathepsin K. Turning to `C[C@H](NC(=O)[C@@H]1CCCN2C(=O)CC[C@H](NC(=O)Nc3ccc(Oc4ccccc4)cc3)C(=O)N12)C(=O)COC(=O)c1c(Cl)cccc1Cl` [Example 453, 9-[(9S)-[[(4-phenoxyphenyl)amino]carbonyl]amino]-N-[(2S)-4-[(2,6-dichlorobenzoyl)oxy]-3-oxo-2-butyl]-octahydro-6,10-dioxo-6H-(1S)-pyridazino[1,2-a][1,2]diazepine-1-carboxamide], the IC50 at Cathepsin B is 9 µM; at Cathepsin K, 20 µM. Turning to `C[C@H](NC(=O)[C@@H]1CCCN2C(=O)CC[C@H](NC(=O)NCCc3cccs3)C(=O)N12)C(=O)COC(=O)c1c(Cl)cccc1Cl` [Example 473, 9-[(9S)-[[[2-(thien-2-yl)-ethyl]amino]carbonyl]amino]-N-[(2S)-4-[(2,6-dichlorobenzoyl)oxy]-3-oxo-2-butyl]-octahydro-6,10-dioxo-6H-(1S)-pyridazino[1,2-a][1,2]diazepine-1-carboxamide], the IC50 against Cathepsin B is 1.5 µM; at Cathepsin K, 20 µM. In the case of “(2-propenyl)(4S)6-diazo-4-[[[(1S,9S)-9-[[[[2-(p-2-yl)-ethyl]amino]carbonyl]amino]-octahydro-6,10-dioxo-6H-pyridazino[1,2-a][1,2]diazepine-1-yl]carbonyl]amino]-5-oxo-hexanoate [Example 44]”, the “Cathepsin B, percentage in parentheses beside IC50 value (% inhibition)” value on Cathepsin B is recorded as 40%. Further, on Cathepsin K, the IC50 is 2 µM.
